Reference: patent US20240360134A1, “PYRAZOLOPYRIMIDINES AND THEIR USES AS PDGFR INHIBITORS” (priority 2021, published 2024)

Key:
[1] = biological target: His6-TEV-PDGFRβ (557-1016) (Homo sapiens (Human), UniProt P09619); experiment: PDGFRβ HTRF Assay; assay type: biochemical; conditions: 800 μM ATP, 0.5 μM TK-substrate biotin peptide, 30 min pre-incubation, 3 hours reaction; read-out: PDGFR HTRF IC50
VEGFR2, unphosphorylated = VEGFR2, unphosphorylated (Homo sapiens (Human), UniProt P35968); experiment: VEGFR ADP GLO assay; assay type: biochemical; conditions: 5 nM VEGFR2, 1.2 mM ATP, 1 mg/mL Srctide, 180 min
Summary of the method: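 Unphosphorylated kinase (10 nM 2× solution) pre-incubated 30 min at RT with compounds (11-point, 3-fold, top 10 µM), then reacted 180 min with srctide and ATP (2×: 2 mg/mL, 2.4 mM) in HEPES pH 7.5 buffer. ADP read by luminescence. IC50 from 4-parameter fit, normalized to DMSO and 1 µM TAK-593.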

[2] = biological target: Tb-labeled inactive PDGFRβ (Homo sapiens (Human), UniProt P09619); experiment: biochemical; assay type: binding; conditions: read-out: PDGFR Lantha IC50
PDGFRβ = PDGFRβ (Rattus norvegicus (Rat), UniProt Q05030); experiment: PDGFRβ Cellular Assay (PDGFRb P-Y751 HTRF, PDGF-BB stimulated A10 cells); assay type: cell-based; conditions: A10 cells, 3 hours compound, 15 ng/mL PDGFbb for 10 minutes; read-out: PDGFR Cellular IC50
Summary of the method: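 Rat A10 cells plated overnight were treated with compound for 3 h, stimulated with rat PDGF-BB (working stock 100 ng/mL in 10% FBS medium) for 10 min, then lysed.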

PDGFRβ, sequence (Q05030 whole entry, looked up): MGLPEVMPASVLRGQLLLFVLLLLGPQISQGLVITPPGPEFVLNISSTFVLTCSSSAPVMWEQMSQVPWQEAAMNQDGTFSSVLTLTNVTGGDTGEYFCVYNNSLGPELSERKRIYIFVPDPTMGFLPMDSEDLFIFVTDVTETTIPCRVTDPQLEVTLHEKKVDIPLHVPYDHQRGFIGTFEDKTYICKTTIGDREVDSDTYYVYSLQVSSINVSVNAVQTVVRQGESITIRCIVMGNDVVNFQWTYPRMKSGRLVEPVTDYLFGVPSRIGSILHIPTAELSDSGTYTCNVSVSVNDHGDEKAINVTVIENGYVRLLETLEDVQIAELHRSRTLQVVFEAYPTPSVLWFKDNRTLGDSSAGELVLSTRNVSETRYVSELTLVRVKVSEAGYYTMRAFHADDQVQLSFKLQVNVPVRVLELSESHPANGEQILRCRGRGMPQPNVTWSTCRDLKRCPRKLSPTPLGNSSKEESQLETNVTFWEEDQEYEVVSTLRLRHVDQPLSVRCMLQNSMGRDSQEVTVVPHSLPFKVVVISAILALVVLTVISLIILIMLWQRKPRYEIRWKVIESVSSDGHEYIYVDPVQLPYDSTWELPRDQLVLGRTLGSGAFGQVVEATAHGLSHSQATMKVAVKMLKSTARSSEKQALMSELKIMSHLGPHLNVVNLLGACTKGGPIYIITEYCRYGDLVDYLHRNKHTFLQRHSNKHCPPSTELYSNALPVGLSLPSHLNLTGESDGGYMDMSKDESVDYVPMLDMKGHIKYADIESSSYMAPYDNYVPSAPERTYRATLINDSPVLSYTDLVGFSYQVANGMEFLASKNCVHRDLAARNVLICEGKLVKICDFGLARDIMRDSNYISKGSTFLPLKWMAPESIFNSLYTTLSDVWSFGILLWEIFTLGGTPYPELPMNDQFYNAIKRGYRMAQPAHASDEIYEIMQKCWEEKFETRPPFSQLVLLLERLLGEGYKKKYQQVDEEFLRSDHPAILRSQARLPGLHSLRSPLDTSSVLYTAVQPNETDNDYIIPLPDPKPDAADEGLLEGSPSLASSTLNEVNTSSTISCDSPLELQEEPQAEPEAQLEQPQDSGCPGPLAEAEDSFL
VEGFR2, unphosphorylated, sequence (P35968 whole entry, looked up): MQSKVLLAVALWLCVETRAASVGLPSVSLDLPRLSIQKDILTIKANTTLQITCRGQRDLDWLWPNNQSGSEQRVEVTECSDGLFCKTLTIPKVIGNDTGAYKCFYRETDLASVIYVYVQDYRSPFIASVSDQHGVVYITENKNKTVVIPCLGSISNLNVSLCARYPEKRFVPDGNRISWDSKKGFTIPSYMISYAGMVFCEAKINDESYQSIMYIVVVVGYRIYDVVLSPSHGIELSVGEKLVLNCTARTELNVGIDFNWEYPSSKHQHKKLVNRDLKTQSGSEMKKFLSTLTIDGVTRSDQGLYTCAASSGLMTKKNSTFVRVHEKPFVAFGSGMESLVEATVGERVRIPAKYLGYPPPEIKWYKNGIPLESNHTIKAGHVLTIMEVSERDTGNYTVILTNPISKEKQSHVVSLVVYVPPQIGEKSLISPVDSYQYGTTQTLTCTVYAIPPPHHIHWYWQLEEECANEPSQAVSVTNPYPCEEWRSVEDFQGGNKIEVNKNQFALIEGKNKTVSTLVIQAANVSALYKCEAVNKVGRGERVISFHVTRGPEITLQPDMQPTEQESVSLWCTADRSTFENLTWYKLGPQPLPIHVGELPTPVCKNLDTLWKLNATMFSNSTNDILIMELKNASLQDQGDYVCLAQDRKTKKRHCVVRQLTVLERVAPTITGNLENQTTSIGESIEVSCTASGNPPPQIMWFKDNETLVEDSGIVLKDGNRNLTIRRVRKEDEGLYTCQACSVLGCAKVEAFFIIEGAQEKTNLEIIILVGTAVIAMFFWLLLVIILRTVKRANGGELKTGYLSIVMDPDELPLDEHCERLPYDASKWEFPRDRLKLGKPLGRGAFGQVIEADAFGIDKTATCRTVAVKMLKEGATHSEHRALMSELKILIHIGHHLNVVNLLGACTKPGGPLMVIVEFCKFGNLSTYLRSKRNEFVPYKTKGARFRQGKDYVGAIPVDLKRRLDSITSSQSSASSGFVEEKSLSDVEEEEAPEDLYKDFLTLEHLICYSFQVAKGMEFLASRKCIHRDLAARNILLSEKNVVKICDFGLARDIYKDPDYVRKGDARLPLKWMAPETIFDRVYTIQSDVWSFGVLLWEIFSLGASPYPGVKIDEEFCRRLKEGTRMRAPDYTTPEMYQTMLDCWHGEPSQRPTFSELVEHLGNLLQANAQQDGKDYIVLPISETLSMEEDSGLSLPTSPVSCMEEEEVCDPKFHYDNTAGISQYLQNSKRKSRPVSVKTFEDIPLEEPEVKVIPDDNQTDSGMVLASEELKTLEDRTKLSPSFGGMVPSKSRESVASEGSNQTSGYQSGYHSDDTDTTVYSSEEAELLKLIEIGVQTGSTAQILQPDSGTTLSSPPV
His6-TEV-PDGFRβ (557-1016), sequence (P09619 whole entry, looked up): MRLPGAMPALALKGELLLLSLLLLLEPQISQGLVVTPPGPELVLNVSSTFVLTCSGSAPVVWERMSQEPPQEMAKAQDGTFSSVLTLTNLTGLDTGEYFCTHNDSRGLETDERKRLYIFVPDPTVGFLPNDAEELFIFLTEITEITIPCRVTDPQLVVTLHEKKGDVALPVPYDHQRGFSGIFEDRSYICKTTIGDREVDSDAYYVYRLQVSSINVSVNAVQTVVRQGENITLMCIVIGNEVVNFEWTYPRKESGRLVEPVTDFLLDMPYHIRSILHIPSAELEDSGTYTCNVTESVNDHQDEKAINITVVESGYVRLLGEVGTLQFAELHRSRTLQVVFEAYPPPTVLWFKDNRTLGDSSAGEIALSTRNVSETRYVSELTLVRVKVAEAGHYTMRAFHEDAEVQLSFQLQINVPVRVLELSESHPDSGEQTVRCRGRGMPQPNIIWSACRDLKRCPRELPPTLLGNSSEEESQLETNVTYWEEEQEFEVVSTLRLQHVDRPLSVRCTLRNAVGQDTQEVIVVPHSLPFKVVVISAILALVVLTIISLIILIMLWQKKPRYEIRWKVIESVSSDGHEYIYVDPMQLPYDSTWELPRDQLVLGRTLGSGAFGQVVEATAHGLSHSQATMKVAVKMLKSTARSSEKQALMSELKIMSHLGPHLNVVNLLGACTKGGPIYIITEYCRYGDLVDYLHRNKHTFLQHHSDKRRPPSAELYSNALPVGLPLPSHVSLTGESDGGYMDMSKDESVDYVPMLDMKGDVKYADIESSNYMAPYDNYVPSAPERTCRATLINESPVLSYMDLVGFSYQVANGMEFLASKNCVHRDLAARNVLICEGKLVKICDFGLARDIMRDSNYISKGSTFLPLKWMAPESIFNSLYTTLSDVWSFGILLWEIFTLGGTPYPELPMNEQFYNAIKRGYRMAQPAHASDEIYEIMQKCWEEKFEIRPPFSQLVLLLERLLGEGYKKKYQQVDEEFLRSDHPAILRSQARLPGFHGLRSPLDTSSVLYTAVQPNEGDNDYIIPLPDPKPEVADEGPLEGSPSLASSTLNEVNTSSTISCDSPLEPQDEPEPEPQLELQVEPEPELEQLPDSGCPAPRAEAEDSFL
Tb-labeled inactive PDGFRβ, sequence (P09619 whole entry, looked up): as above

Structure (SMILES) | IC50 [1] [nM] | IC50 (VEGFR2, unphosphorylated) [nM] | IC50 [2] [nM] | IC50 (PDGFRβ) [nM]
Cc1ncc(C(=O)NCCN(CCF)C2CCCC2)cc1Nc1nn(C)c2nc(Nc3cnn(C)c3)ncc12 [Example 152, N-(2-(cyclopentyl(2-fluoroethyl)amino)ethyl)-6-methyl-5-((1-methyl-6-((1-methyl-1H-pyrazol-4-yl)amino)-1H-pyrazolo[3,4-d]pyrimidin-3-yl)amino)nicotinamide] | 0.45 | 2530 | 3.4 | 7.4
Cc1ncc(C(=O)NCCN2C3CCC2CC3)cc1Nc1nn(C)c2nc(Nc3cnn(C)c3)ncc12 [Example 153, N-(2-(7-azabicyclo[2.2.1]heptan-7-yl)ethyl)-6-methyl-5-((1-methyl-6-((1-methyl-1H-pyrazol-4-yl)amino)-1H-pyrazolo[3,4-d]pyrimidin-3-yl)amino)nicotinamide] | 0.26 | > 7500 | 1.3 | 113
Cc1nn(C)cc1Nc1ncc2c(Nc3cc(C(=O)NCCN4CCC5(CC5)C4)cnc3C)nn(C)c2n1 [Example 154, N-(2-(5-azaspiro[2.4]heptan-5-yl)ethyl)-5-((6-((1,3-dimethyl-1H-pyrazol-4-yl)amino)-1-methyl-1H-pyrazolo[3,4-d]pyrimidin-3-yl)amino)-6-methylnicotinamide] | 1.41 | > 7500 | 12 | 120
Cc1ncc(C(=O)NCCN2CCC[C@@H]2C)cc1Nc1nn(C)c2nc(Nc3cnn(C)c3C)ncc12 [Example 155, (S)-5-((6-((1,5-dimethyl-1H-pyrazol-4-yl)amino)-1-methyl-1H-pyrazolo[3,4-d]pyrimidin-3-yl)amino)-6-methyl-N-(2-(2-methylpyrrolidin-1-yl)ethyl)nicotinamide] | 1.98 | > 7500 | 15.5 | 169
Cc1ncc(C(=O)NCCN2CCCC2(C)C)cc1Nc1nn(C)c2nc(Nc3cnn(C)c3C)ncc12 [Example 156, 5-((6-((1,5-dimethyl-1H-pyrazol-4-yl)amino)-1-methyl-1H-pyrazolo[3,4-d]pyrimidin-3-yl)amino)-N-(2-(2,2-dimethylpyrrolidin-1-yl)ethyl)-6-methylnicotinamide] | 2.15 | > 7500 | 20.2 | 19.7
Cc1ncc(C(=O)NCCN2CCCC2(C)C)cc1Nc1nn(C)c2nc(Nc3ccnn3C)ncc12 [Example 157, N-(2-(2,2-dimethylpyrrolidin-1-yl)ethyl)-6-methyl-5-((1-methyl-6-((1-methyl-1H-pyrazol-5-yl)amino)-1H-pyrazolo[3,4-d]pyrimidin-3-yl)amino)nicotinamide] | 3.39 | > 7500 | 32.9 | 110
Cc1cc(Nc2ncc3c(Nc4cc(C(=O)NCCN5CCC[C@@H]5C)cnc4C)nn(C)c3n2)n(C)n1 [Example 158, (S)-5-((6-((1,3-dimethyl-1H-pyrazol-5-yl)amino)-1-methyl-1H-pyrazolo[3,4-d]pyrimidin-3-yl)amino)-6-methyl-N-(2-(2-methylpyrrolidin-1-yl)ethyl)nicotinamide] | 2.63 | > 7500 | 22.3 | 147
Cc1nn(C)cc1Nc1ncc2c(Nc3cc(C(=O)NCCN4CCC(C)(C)C4)cnc3C)nn(C)c2n1 [Example 159, 5-((6-((1,3-dimethyl-1H-pyrazol-4-yl)amino)-1-methyl-1H-pyrazolo[3,4-d]pyrimidin-3-yl)amino)-N-(2-(3,3-dimethylpyrrolidin-1-yl)ethyl)-6-methylnicotinamide] | 1.5 | > 7500 | 13.3 | 60.7
Cc1nn(C)cc1Nc1ncc2c(Nc3cc(C(=O)NCCN4CCC[C@@H]4C)cnc3C)nn(C)c2n1 [Example 160, (S)-5-((6-((1,3-dimethyl-1H-pyrazol-4-yl)amino)-1-methyl-1H-pyrazolo[3,4-d]pyrimidin-3-yl)amino)-6-methyl-N-(2-(2-methylpyrrolidin-1-yl)ethyl)nicotinamide] | 1.55 | > 7500 | 11.3 | 53.3
